The test system of assay [1] is HUVEC. The assay is described as follows: Time-lapse chemokinesis assay. Particulars: HUVEC on gelatin, 4 hours time-lapse, peptide 200 nM, FIG. 5B. The assay is classed as cell-based, human. As to the method:
FIG. 5. Controlled TCPTP activation inhibits VEGF-driven capillary formation, chemokinesis and chemotaxis. (A) HUVEC were cultured in fibrin gels and treated with or without VEGF and TAT peptides (200 nM). After 24 h the formation of capillary tubes was semiquantitatively scored. (B) HUVEC were plated on gelatin in the presence of the peptides (200 nM) or left untreated for 1 h. The cells were stimulated as indicated and migration of individual cells was tracked using time-lapse microscopy. Cumulative migration distance was plotted for randomly picked individual cells. (C) HUVEC were treated with 200 nM peptides and the transmigration assay was performed as in FIG. 3D. (D) HUVEC were transfected with siRNA against TCPTP or a control siRNA, and TCPTP expression was analysed with immunofluorescence. Equal exposures of TCPTP (green) and DAPI (blue) stainings are shown. 48 h post-transfection cells were subjected to transmigration assay as in […].
FIG. 9. TCPTP activation by α1-peptide inhibits VEGF induced chemokinesis. HUVEC were plated on gelatin in the presence of the peptides (200 nM) or left untreated for 1 h. The cells were stimulated as indicated and migration of individual cells was tracked using time-lapse microscopy. Representative images of individual cells overlayed with their migration patterns (different colours) at the indicated time points are shown.
Time-lapse chemokinesis assays. HUVEC were plated on gelatin-coated wells and allowed to attach for 1 h in the presence or absence of 200 nM α1TAT or ScrTAT and 20 ng/ml VEGF. Migration of individual cells was recorded at 5 min intervals for 4 h using 20× objective and digital video recording. The migration pathway of at least ten randomly picked cells was tracked using the Metamorph program. The cumulative migration distances were also plotted.

Assay [2] has as its system VEGFR2. Kind of assay: VEGFR2 internalization assay in HUVEC (microscopy, cold trypsin protection). It is filed as cell-based, human. The note with it: for effect on VEGFR2 internalization in confluent cells: confluent HUVEC, peptide 200 nM, FIG. 10C. As to the method: FIG. 3. TCPTP activity controls VEGF-dependent responses in endothelial cells. (A) HUVEC were transfected with the constitutively active TCPTP (TC37) or vector control (pCG), stimulated or not with VEGF, and stained for VEGFR2 (red) and nuclei (blue) after fixation and permeabilization. Arrows indicate VEGFR2 vesicles. (B) HUVEC were treated as in (A) and subjected to trypsin digestion on ice. VEGFR2 protected from trypsin (=internalized pool) was detected by immunoblotting. The intensities of VEGFR2 bands were quantified and are expressed relative to pCG-VEGF control. A representative experiment out of 2 with similar results is shown. (C) HUVEC were transfected with no oligo, siRNA against TCPTP or a control siRNA, and TCPTP expression was measured using immunoblotting. Cells were treated with 80 ng/ml VEGF and proliferation of sparse cells plated on gelatin was assayed after 16 h using BrdU-based assay (mean±SD; n=4-6; *, p<0.05). (D) HUVEC were transfected as in (A) and chemotaxis towards VEGF was measured using a Transwell assay for 4 hours. Cells adhering to the bottom of the filter were fixed and stained with crystal violet. Number of migrated cells was counted (mean±SEM, n=3).
FIG. 7. TCPTP activation through the cytoplasmic domain of α1 integrin inhibits internalization of VEGFR2. […] VEGFR2 staining in the perinuclear area of cells (mean±SEM, n=30) was analyzed from blinded samples using densitometry and scored from 0 to 4 (0=no staining, 4=highest expression). […] VEGFR2 protected from trypsin (=internalized pool) was detected by immunoblotting. The intensity of VEGFR2 bands was quantified using densitometry and expressed as arbitrary units. […]
FIG. 10. […] (B) Confluent HUVEC on gelatin were treated with VEGF in the presence or absence of α1TAT or ScrTAT peptide and the number of live cells was detected using WST-1 reagent (mean±SD, n=3). […] The intensity of VEGFR2 bands was quantitated using densitometry (a representative experiment out of 3 with similar results is shown).
VEGFR2 internalization assay. […] The amount of VEGFR2 in each sample was analyzed using immunoblotting.

The source of these data is patent US20100160228A1, “METHOD FOR INHIBITING OR STIMULATING ANGIOGENESIS IN AN INDIVIDUAL” (VALTION TEKNILLINEN TUTKIMUSKESKUS, priority 2007, published 2010).

On to “YGRKKRRQRRRLKGWRFKLKPKFKEMK (SEQ ID NO 8) [ScrTAT, reference compound]”, for which the “inhibition of VEGF-induced chemokinesis” value in assay [1] is on record as “no significant effect”. Besides, in assay [2], the “effect on VEGFR2 internalization in confluent cells” value is listed as “no effects”.
Turning to “YGRKKRRQRRRWKLGFFKRPLKKKMEK (SEQ ID NO 3) [α1TAT]”, in assay [1], the “inhibition of VEGF-induced chemokinesis” value is given as 76±4%. Also, the “effect on VEGFR2 internalization in confluent cells” value in assay [2] was “no effects”. Besides, the “internalization of VEGFR2 in HUVEC” value in assay [2] (subconfluent HUVEC, peptide 200 nM 1 h, VEGF 100 ng/ml 15 min, FIG. 7) was “specifically inhibited”.
